Experimental data as given in patent US20240016900A1, “COLLAGEN PEPTIDE-BASED MEDICAMENT COMPOSITIONS AND USES THEREOF” (SUSTAIN HOLDINGS, LLC, priority 2022, published 2024).

Columns and labels:
[1] = cited from earlier work; for melting temperature of a triple helix: Sakakibara et al. 1973
[2] = system: peripapillary sclera in mouse eyes; test: AFM measurement of Young's Modulus in mouse peripapillary sclera explants after MMP treatment, with or without CMP; details: MMP1 alone, 50 μg/ml for 30 minutes, compared with untreated baseline
Excerpt: Therefore, to examine the possible therapeutic effects of CMPs of the invention in treating myopia, studies were designed to test the effects of certain CMPs conjugates in a model of the in vivo setting—an ex vivo study of the collagen matrix in the peripapillary sclera in mouse eyes. To conduct these studies, mouse eyes were explanted and thin sectioned, and sections of the peripapillary sclera (the scleral area adjacent to the optic nerve head) were examined by atomic force microscopy (AFM).
To examine the impact of matrix metalloproteinase (MMP) treatment, with or without subsequent CMP treatment, on the stiffness of the mouse peripapillary scleral explants, samples were treated with MMP (50 μg/ml for 30 minutes), followed by either a PBS washout or by treatment with a CMP-containing formulation of the invention for 60 minutes.
To increase the statistical significance of these studies, AFM was used to make Young's Modulus measurements across a large number of points in multiple individual locations in a given sample of peripapillary sclera.

[3] = system: glial lamina at the optic nerve head; test: AFM measurement of Young's Modulus and morphology in glial lamina of mouse eye explants after MMP1 treatment, with or without CMP; details: MMP1 alone, 5 μg/ml for 30 minutes, compared with untreated baseline
Excerpt: To conduct these studies, mouse eyes were explanted and thin sectioned as described in Example 2 above, and sections of the glial lamina and the peripapillary sclera were examined by atomic force microscopy (AFM).
To increase the statistical significance of these studies, AFM was used to make Young's Modulus measurements across a large number of points in multiple individual locations in a given sample of glial lamina, as was done in Example 2 for peripapillary sclera.

glial lamina = test: Fluorescence microscopy of disrupted (RCHP) and intact (Col1) collagen in explants, glial lamina; design: species or system mouse; details: MMP1 alone 30 minutes
Procedure: (§1) To examine the distribution of disrupted and intact collagen in such explants, samples prepared as above were treated with DAPI (to localize cell nuclei), a fluorescently labeled antibody against type I collagen (“Col1”), and a Cy3-labeled collagen hybridizing peptide (“RCHP”) which binds only to areas of disrupted collagen.

peripapillary sclera = test: Fluorescence microscopy of disrupted (RCHP) and intact (Col1) collagen in explants, peripapillary sclera; design: species or system mouse; details: MMP1 alone 30 minutes
Procedure: as §1

Human type I collagen = Human type I collagen (Homo sapiens, UniProt P02452+P08123); test: AFM of type I collagen plated on substrates, MMP1 with or without CMP13; type: biochemical; details: collagen 10 μg/ml; MMP1 alone 60 ng/ml for 30 minutes
Excerpt: In untreated (baseline) samples, extensive and multilamellar networks of collagen fibers, fibrils and bundles could be readily observed (FIGS. 15A, 15B).

Human type I collagen, sequence (P02452 162-1218 limits assumed): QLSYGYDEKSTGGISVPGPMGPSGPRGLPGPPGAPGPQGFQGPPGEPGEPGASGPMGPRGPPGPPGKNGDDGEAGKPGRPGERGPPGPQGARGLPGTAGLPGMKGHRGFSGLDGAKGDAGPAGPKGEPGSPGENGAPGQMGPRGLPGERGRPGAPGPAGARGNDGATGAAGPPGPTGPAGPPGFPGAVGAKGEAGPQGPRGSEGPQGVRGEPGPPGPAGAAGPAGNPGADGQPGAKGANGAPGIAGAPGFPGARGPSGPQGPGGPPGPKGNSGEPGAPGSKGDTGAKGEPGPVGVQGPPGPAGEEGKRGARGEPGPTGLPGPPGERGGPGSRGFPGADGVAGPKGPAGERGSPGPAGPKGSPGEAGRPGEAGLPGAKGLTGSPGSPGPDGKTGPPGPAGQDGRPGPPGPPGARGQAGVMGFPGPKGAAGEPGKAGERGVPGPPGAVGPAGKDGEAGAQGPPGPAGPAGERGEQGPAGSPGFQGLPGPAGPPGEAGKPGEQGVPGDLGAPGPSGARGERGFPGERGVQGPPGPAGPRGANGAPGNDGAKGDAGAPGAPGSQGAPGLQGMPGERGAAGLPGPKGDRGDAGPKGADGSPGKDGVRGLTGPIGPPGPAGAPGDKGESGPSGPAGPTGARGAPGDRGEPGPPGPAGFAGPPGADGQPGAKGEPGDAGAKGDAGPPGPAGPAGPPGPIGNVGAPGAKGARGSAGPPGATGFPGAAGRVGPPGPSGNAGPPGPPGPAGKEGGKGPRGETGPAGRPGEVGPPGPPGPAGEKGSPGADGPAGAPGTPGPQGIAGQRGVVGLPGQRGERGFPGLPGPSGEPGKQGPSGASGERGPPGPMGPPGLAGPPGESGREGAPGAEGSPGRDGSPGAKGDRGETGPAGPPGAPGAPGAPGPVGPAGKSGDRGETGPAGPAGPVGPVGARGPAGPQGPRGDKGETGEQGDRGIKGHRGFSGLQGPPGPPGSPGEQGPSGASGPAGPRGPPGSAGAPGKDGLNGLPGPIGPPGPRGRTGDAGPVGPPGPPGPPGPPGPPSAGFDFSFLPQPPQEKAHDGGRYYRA
Human type I collagen, sequence (P08123 80-1119 limits assumed): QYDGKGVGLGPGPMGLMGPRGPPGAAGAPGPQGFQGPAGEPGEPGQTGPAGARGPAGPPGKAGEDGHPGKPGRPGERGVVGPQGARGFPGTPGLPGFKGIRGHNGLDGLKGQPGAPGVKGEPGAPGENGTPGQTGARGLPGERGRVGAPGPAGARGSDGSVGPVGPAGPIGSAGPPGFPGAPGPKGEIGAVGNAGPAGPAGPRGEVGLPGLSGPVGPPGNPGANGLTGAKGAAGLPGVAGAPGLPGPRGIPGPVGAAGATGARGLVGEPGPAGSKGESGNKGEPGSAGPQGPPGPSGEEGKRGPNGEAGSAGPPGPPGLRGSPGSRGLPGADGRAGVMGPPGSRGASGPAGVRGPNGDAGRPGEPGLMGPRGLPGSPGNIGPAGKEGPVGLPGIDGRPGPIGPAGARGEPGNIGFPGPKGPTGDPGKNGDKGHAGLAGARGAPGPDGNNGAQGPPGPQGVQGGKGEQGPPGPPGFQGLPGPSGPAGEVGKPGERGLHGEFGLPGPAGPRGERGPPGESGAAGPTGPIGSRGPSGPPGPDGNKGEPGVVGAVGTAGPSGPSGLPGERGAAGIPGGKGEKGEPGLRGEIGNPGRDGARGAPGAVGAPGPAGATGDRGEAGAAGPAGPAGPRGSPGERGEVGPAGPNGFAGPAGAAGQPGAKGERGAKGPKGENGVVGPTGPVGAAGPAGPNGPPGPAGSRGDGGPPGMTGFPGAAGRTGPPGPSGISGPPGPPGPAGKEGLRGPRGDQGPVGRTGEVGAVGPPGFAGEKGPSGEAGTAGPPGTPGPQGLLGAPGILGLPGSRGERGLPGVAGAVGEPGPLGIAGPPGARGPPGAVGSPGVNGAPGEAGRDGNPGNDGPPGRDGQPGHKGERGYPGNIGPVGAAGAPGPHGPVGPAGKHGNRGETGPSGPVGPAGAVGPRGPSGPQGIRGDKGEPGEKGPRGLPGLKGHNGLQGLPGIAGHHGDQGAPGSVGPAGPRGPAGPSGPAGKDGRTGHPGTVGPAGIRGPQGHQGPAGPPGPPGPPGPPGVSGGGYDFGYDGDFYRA

(ProHypGly)10
melting temperature of a triple helix [1]: 58 °C
rate at which chains fold into a triple helix ([1]; relative to (ProProGly)10, Chopra and Ananthanarayanan 1982): substantially greater

(ProProGly)10
melting temperature of a triple helix [1]: 24 °C

MMP1: matrix metalloproteinase 1, used to disrupt collagen in explants and on substrates
Young's Modulus (scleral stiffness) [2]: significant decrease in Young's Modulus
Young's Modulus (scleral stiffness) ([2]; listed as MMP): significantly reduced the scleral stiffness
Young's Modulus (glial lamina stiffness) [3]: significant decrease in Young's Modulus
Young's Modulus (glial lamina stiffness) ([3]; listed as MMP): adversely affecting the stiffness of the glial lamina
disrupted collagen (RCHP) (glial lamina): large amount of disrupted collagen
intact collagen (Col1) (glial lamina): nearly devoid of intact collagen
disrupted collagen (RCHP) (peripapillary sclera): large amount of disrupted collagen
collagen fiber/fibril networks on substrate (AFM) (Human type I collagen): substantial amount of disorganized collagen and little remaining fiber/fibril formation
